According to patent publication US8900851B2, “Multi-well platform” (The Research Foundation for the State University of New York, priority 2008, dated 2014):

Experiments:
[1] = tested on: C43; assay: C43 expression by real time RT PCR in MCF-7 cells; format: cell-based, human; conditions: MCF-7 cells treated vs untreated, FIG. 17A
Protocol: (§1) MCF-7 cells were left untreated or treated with an inhibitor of DNA methyltransferase, […] (5-aza-dC). Expression of C43 was monitored by a real time RT PCR approach and cell migration ability was determined by a transwell chamber migration assay.

[2] = tested on: MCF-7 cells; assay: transwell chamber migration assay, MCF-7 cells; format: cell-based, human; conditions: FIG. 17B
Protocol: as §1

[3] = tested on: C43; assay: C43 expression by real time RT PCR in MDA-MB-231 cells; format: cell-based, human
[4] = tested on: MDA-MB-231 cells; assay: transwell chamber migration assay, MDA-MB-231 cells; format: cell-based, human
[5] = tested on: human breast cancer MDA-MB-231 cells; assay: 3D invasion assay with well-established inhibitory compounds; format: cell-based; conditions: data not shown
Excerpt: To increase the throughput as well as to standardize and automate the readout using imaging software, we have designed and tooled a 96-well plate with a 2.1 mm3 pit in the center of each well. This tooled plate restricts the cell/matrix mixture to an identical pit (size and location) within each well, thus permitting automated microscopic imaging of cell invasion (FIG. 19). To test if imaging acquisition and data analysis can be automated, we have employed a motorized stage (Prior Scientific, Inc.) installed on the existing Nikon TE2000s inverted microscope. The automated microscopy system is controlled by the NIS-Elements imaging software (Nikon) for imaging acquisition and data analysis. Using a 10× objective, we have shown that it takes 6 minutes to scan the entire 96 well plate. To quantitatively analyze cells that invade into the matrix, using both phase contrast and nuclear-stained images is optimal.
To establish the efficacy of the assay for screening libraries, we have tested the effect of well-established inhibitory compounds on cell invasion. […] Moreover, this 3D invasion assay is simple, precise, easy to replicate, and has multiple applications.

[6] = tested on: HT1080 and/or human breast cancer MDA-MB-231 cell; assay: 3D invasion assay, positive controls; format: cell-based; conditions: positive controls in culture medium, HT1080 and/or MDA-MB-231 cells
Protocol: HT1080 cells and/or human breast cancer MDA-MB-231 cells (4×10^7/ml) mixed with type I collagen (1.5 mg/ml at final) are dispensed into the cell-holding wells in invasion assay plates (2 ul/well, optimum volume) using the liquid handling system at 4° C. working temperature to prevent the collagen from solidifying within the liquid handling system. After dotting, the plate is inserted in an incubator chamber at 37° C. for 15 min followed by the addition of type I collagen to cover the gelled cell aggregates. […] Images are acquired from transmission (phase contrast) and fluorescence (DAPI) sources by an external light shutter device that gathers two images per time point in time-lapse sequences. […] Data analysis will be performed using NIS-Element imaging software (Nikon) based on pre-determined criteria.
The following steps will be performed to screen the compound library targeting cancer cell migration/invasion using the automated 3D invasion HTS system: 1) Cell plating: HT1080 cells and/or human breast cancer MDA-MB-231 cells are used for selecting inhibitory compounds because these cells display invasive ability and represent mesenchymal cancer cells. […] Images acquired by an automated Nikon inverted microscope (TE2000s) equipped with a motorized stage (Prior Scientific) are then analyzed using the NIS-Elements software (Nikon). […]

[7] = tested on: C43; assay: shRNA effect on endogenous C43 expression, real time RT PCR in MDA-MB-435 cells; format: cell-based, human; conditions: retroviral shRNA delivery
Protocol: A) Overexpresison of C43 enhanced cell migration. COS-1 cells and MCF-7 cells transfected with vector control (1 & 4), C43 (2 & 5) or MT1-MMP (3 & 6, positive control) cDNAs were evaluated by a Transwell Chamber migration assay after 6 hours. The cells were fixed and migratory cells were counted under microscopy with 20× objective. Ten fields were examined for each transfected cells. Each bar represents the mean±SE. B) Enhanced cell migration in MCF-7 cells expressing C43-GFP chimera. Minimally invasive human breast cancer MCF-7 cells stably transfected with GFP control and C43-GFP chimeric cDNA were mixed with type I collagen and dotted onto a 96-well plate. […] Cell migration was determined under microscopy. […]
Small interfering oligonucleotides specific for either C43 or luciferase (control) to express short hairpin RNA (shRNA) were designed using an online software system (Block-iT RNAi Designer; Invitrogen) for mammalian RNA interference. Specific 21-nucleotide sequences spanning nucleotides […] of the human C43 gene (see FIG. 2: SEQ ID NO: 1) and nucleotides 103-123 of luciferase from firefly Pyrocoelia pectoralis as a control were synthesized by Operon Biotechnologies, Inc. Annealed double stranded oligonucleotides were cloned into the RNAi-Ready pSIREN-Retra Q vector (Clontech). […]

[8] = tested on: MDA-MB-435 cells; assay: 3D invasion assay, MDA-MB-435 cells expressing shRNA; format: cell-based, human; conditions: 3D invasion assay after 8 days, vs Luciferase shRNA control
Excerpt: (§2) Left panel: Loss of invasive ability of MDA-MB-435 cells by downregulation of C43. MDA-MB-435 cells expressing Luciferase shRNA control, C43 shRNA-2 and -3 were examined by the 3D invasion assay after 8 days. […] MDA-MB-435 cells expressing Luciferase shRNA shRNA, C43 shRNA-2 and -3 cultured on plastic dishes were observed under inverted microscopy with differential interference contrast (DIC).
The following methodology permits the detection of cancer cell invasion into a collagen matrix and the inhibitory activity of anti-cancer drugs. This assay is useful in identifying pharmacologic agents (drugs) that interfere with cancer progression. […] Invading cancer cells leaving the perimeter of the original collagen droplet are readily visualized extending into the surrounding collagen matrix after 18 h incubation. Both qualitative and quantitative analyses are performed microscopically. The invasive ability of cancer cells (cells outside the original droplet), as well as the effect of pharmacologic agents on the cancer cell invasion, can be determined microscopically. The effect of pharmacologic agents on invasion of cancer cells is determined by counting invading cells in the presence versus the absence of pharmacologic agents. […] This assay will be readily adaptable for high throughput screening of libraries of compounds that may be useful for cancer treatment. […]

[9] = tested on: MDA-MB-435 cells; assay: cell proliferation of MDA-MB-435 cells expressing shRNA; format: cell-based, human; conditions: MDA-MB-435 cells in culture
Excerpt: as §2
(§3) As summarized in FIG. 1, 2×10^6 MDA-MB-435 cancer cells expressing either C43 shRNA or luciferase shRNA control were orthotopically injected into mammary tissue of nu/nu immunodeficient mice. Tumor growth was measured with calipers twice a week. Tumor size was determined using the formula: (tumor size=tumor diameter(×)square root of tumor diameter(÷)2). […] In contrast to in vivo tumor growth, downregulation of C43 had no effect on cancer MDA-MB-435 cell proliferation in tissue culture (not shown), emphasizing the unique role of C43 on protease-independent aspects of cell invasion and tumor progression.

[10] = tested on: MDA-MB-435 cells; assay: cell morphology of MDA-MB-435 cells expressing shRNA (DIC microscopy); format: cell-based, human; conditions: MDA-MB-435 cells cultured on plastic dishes
Excerpt: as §2

[11] = tested on: MDA-MB-435 cancer cells; assay: orthotopic implantation of MDA-MB-435 cells expressing shRNA into immunodeficient mice; format: in vivo, nu/nu immunodeficient mice
Excerpt: FIG. 1 depicts tumor growth and survival curves comparing the effect of C43 shRNA (SEQ ID NO: 2) (FIG. 1A) and control luciferase shRNA (FIG. 1B) on tumor appearance, progression, and survival following orthotopic implantation of MDA-MB-435 breast cancer cells into immunodeficient mice.
as §3

[12] = tested on: C43; assay: Northern blot analysis of C43 in HT1080 cells; format: cell-based, human; conditions: FIG. 11A
Excerpt: Total RNAs of MCF-7 cells, HT1080 or HT1080 cells treated with Con A were probed with p^32-labeled C43 probe. A single 9.5 kb mRNA transcript corresponding to C43 was detected (arrowhead). Con A enhances C43 expression in HT1080 cells. B) Expression of C43 in transfected COS-1 cells: COS-1 cells transfected with vector or C43-Myc chimera were examined by Western blotting using anti-Myc antibody. C43 was detected as a 150 kDa protein band along with degradation products.

| Compound | endogenous C43 expression [7] | cell invasive ability [8] | cell proliferation [9] | cell morphology [10] | other results |
| --- | --- | --- | --- | --- | --- |
| Nc1ncn([C@H]2C[C@H](O)[C@@H](CO)O2)c(=O)n1 [5-aza-dC, a-aza-deoxycytined] |  |  |  |  | endogenous C43 expression [1]: increased; cell migration [2]: enhanced; C43 expression [3]: No effect; cell migration [4]: No effect |
| COc1cccc(-c2cc(=O)c3ccccc3o2)c1N [PD98059] |  |  |  |  | inhibition of cell invasion [5]: dose-dependent inhibition; cell invasion [6]: block |
| C43 shRNA-2: C43 shRNA sequence GTGGAAGACCATATTGAATAT, nt 1104 | significantly decrease | loss of cell invasive ability | does not alter | Change of cell morphology |  |
| C43 shRNA-3: C43 shRNA sequence GCCTCTCCATCCATCATACATT, nt 1997 | significantly decrease | loss of cell invasive ability | does not alter | Change of cell morphology |  |
| C43 shRNA: 21-nucleotide C43 shRNA CCTCTCCATCCATCATACATT spanning nucleotides 1735-1757 of SEQ ID NO: 1 (chemistry not given here; listed as Homo sapiens) |  |  | no effect |  | tumor appearance and progression ([11]; 2×10^6 MDA-MB-435 cells orthotopically injected into mammary tissue, vs luciferase shRNA control, FIG. 1A): delayed; survival ([11]; orthotopic MDA-MB-435, vs luciferase shRNA control mice, FIG. 1B): prolonged |
| Concanavalin A [Con A] |  |  |  |  | C43 expression [12]: enhances |
